The data set addresses HBV. The following applies: ASO.

Target mRNA inhibition data for 21 substances are collected here from the OligoGym collection.

Values joined by “and” are separate entries in the source; they are usually repeats but may differ in a detail not shown here. Equal values may be shown once. HELM strings list units from the 5' end as sugar, base in round brackets, then linkage (d deoxyribose, r ribose, m 2'-O-methyl, p phosphodiester). Methylation of C is not given here. [moe] = 2'-O-(2-methoxyethyl) (MOE); [cEt] = constrained ethyl (cEt); [sp] = phosphorothioate linkage

Substance “RNA1{[moe](G)[sp].[moe](G)[sp].[moe](C)[sp].d(A)[sp].d(T)[sp].d(A)[sp].d(G)[sp].d(C)[sp].d(A)[sp].d(G)[sp].d(C)[sp].d(A)[sp].d(G)[sp].[moe](G)[sp].[moe](A)[sp].[moe](T)[sp].[moe](G)}$$$$V2.0” displayed a target mRNA inhibition (HepG2, 0.0092593 µM) of 11%; a target mRNA inhibition (HepG2, 0.009375 µM) of 42%; a target mRNA inhibition (HepG2, 0.01875 µM) of 30%; a target mRNA inhibition (HepG2, 0.0277778 µM) of 28%; a target mRNA inhibition (HepG2, 0.0375 µM) of 43%; a target mRNA inhibition (HepG2, 0.075 µM) of 61%. In addition, the target mRNA inhibition runs as follows: (HepG2, 0.0833333 µM) 60%; (HepG2, 0.15 µM) 77%; (HepG2, 0.25 µM) 77%; (HepG2, 0.3 µM) 91%.

As to “RNA1{[moe](G)[sp].[moe](G)[sp].[moe](T)[sp].[moe](G)[sp].[moe](A)[sp].[moe](A)[sp].d(G)[sp].d(C)[sp].d(G)[sp].d(A)[sp].d(A)[sp].d(G)[sp].d(T)[sp].d(G)[sp].d(C)[sp].[moe](A)[sp].[moe](C)}$$$$V2.0”, where the note is “HepG2, 0.07 µM”, the target mRNA inhibition is 85% and 67%.

Consider “RNA1{[moe](G)[sp].[moe](T)[sp].[moe](G)[sp].[moe](A)[sp].d(A)[sp].d(G)[sp].d(C)[sp].d(G)[sp].d(A)[sp].d(A)[sp].d(G)[sp].d(T)[sp].d(G)[sp].[moe](C)[sp].[moe](A)[sp].[moe](C)}$$$$V2.0”, for which the target mRNA inhibition (HepG2, 0.07 µM) was 62% and 71%.

Regarding “RNA1{[moe](G)[sp].[moe](T)[sp].[moe](G)[sp].[moe](C)[sp].[moe](A)[sp].d(G)[sp].d(A)[sp].d(G)[sp].d(G)[sp].d(T)[sp].d(G)[sp].d(A)[sp].d(A)[sp].d(G)[sp].[moe](C)[sp].[moe](G)[sp].[moe](A)}$$$$V2.0”, the target mRNA inhibition (HepG2, 0.07 µM) was 68% and 62%.

In the case of “RNA1{[moe](G)[sp].[moe](T)[sp].[moe](G)[sp].[moe](C)[sp].[moe](A)[sp].d(G)[sp].d(A)[sp].d(G)[sp].d(G)[sp].d(T)[sp].d(G)[sp].d(A)[sp].d(A)[sp].d(G)[sp].[moe](C)[sp].[moe](G)}$$$$V2.0”, for the setting “HepG2, 0.07 µM”, the target mRNA inhibition was 57% and 51%.

In the case of “RNA1{[moe](G)[sp].[moe](T)[sp].[moe](G)[sp].d(A)[sp].d(A)[sp].d(G)[sp].d(C)[sp].d(G)[sp].d(A)[sp].d(A)[sp].d(G)[sp].d(T)[sp].[moe](G)[sp].[moe](C)[sp].[moe](A)[sp].[moe](C)[sp].[moe](A)}$$$$V2.0”, where the note is “HepG2, 0.07 µM”, the target mRNA inhibition was 71% and 63%.

With “RNA1{[moe](G)[sp].[moe](T)[sp].[moe](G)[sp].d(C)[sp].d(A)[sp].d(G)[sp].d(A)[sp].d(G)[sp].d(G)[sp].d(T)[sp].d(G)[sp].d(A)[sp].[moe](A)[sp].[moe](G)[sp].[moe](C)[sp].[moe](G)[sp].[moe](A)}$$$$V2.0”, where the note is “HepG2, 0.07 µM”, the target mRNA inhibition was 67% and 62%.

For the substance “RNA1{[moe](G)[sp].[moe](T)[sp].[moe](T)[sp].[moe](C)[sp].[moe](C)[sp].d(G)[sp].d(C)[sp].d(A)[sp].d(G)[sp].d(T)[sp].d(A)[sp].d(T)[sp].d(G)[sp].d(G)[sp].[moe](A)[sp].[moe](T)}$$$$V2.0”, the target mRNA inhibition (HepG2, 0.07 µM) is 54% and 51%.

For “RNA1{[moe](G)[sp].[moe](T)[sp].[moe](T)[sp].d(C)[sp].d(C)[sp].d(G)[sp].d(C)[sp].d(A)[sp].d(G)[sp].d(T)[sp].d(A)[sp].d(T)[sp].[moe](G)[sp].[moe](G)[sp].[moe](A)[sp].[moe](T)[sp].[moe](C)}$$$$V2.0”, under “HepG2, 0.07 µM”, the target mRNA inhibition was 60% and 54%.

As to “RNA1{[moe](G)[sp].[moe](T)[sp].[moe](T)[sp].d(C)[sp].d(C)[sp].d(G)[sp].d(C)[sp].d(A)[sp].d(G)[sp].d(T)[sp].d(A)[sp].d(T)[sp].[moe](G)[sp].[moe](G)[sp].[moe](A)[sp].[moe](T)}$$$$V2.0”, where the note is “HepG2, 0.07 µM”, the target mRNA inhibition is 51% and 65%.

As to “RNA1{[moe](G)[sp].[moe](T)[sp].[moe](T)[sp].d(C)[sp].d(C)[sp].d(G)[sp].d(C)[sp].d(A)[sp].d(G)[sp].d(T)[sp].d(A)[sp].d(T)[sp].d(G)[sp].[cEt](G)[sp].[cEt](A)[sp].[cEt](T)}$$$$V2.0”, the target mRNA inhibition (HepG2, 0.07 µM) is 52% and 67%.

Take “RNA1{[moe](T)[sp].[cEt](C)[sp].[cEt](C)[sp].d(G)[sp].d(C)[sp].d(A)[sp].d(G)[sp].d(T)[sp].d(A)[sp].d(T)[sp].d(G)[sp].d(G)[sp].d(A)[sp].[cEt](T)[sp].[cEt](C)[sp].[moe](G)}$$$$V2.0”: the target mRNA inhibition (HepG2, 0.07 µM) is 79% and 76%.

Consider “RNA1{[moe](T)[sp].[cEt](G)[sp].[cEt](A)[sp].d(A)[sp].d(C)[sp].d(A)[sp].d(A)[sp].d(A)[sp].d(T)[sp].d(G)[sp].d(G)[sp].d(C)[sp].d(A)[sp].[cEt](C)[sp].[cEt](T)[sp].[moe](A)}$$$$V2.0”, for which the target mRNA inhibition (HepG2, 0.07 µM) is 71% and 59%.

Consider “RNA1{[moe](T)[sp].[cEt](G)[sp].[cEt](A)[sp].d(A)[sp].d(G)[sp].d(C)[sp].d(G)[sp].d(A)[sp].d(A)[sp].d(G)[sp].d(T)[sp].d(G)[sp].d(C)[sp].[cEt](A)[sp].[cEt](C)[sp].[moe](A)}$$$$V2.0”, for which the target mRNA inhibition (HepG2, 0.07 µM) is 69% and 77%.

For the substance “RNA1{[moe](T)[sp].[cEt](G)[sp].[cEt](A)[sp].d(G)[sp].d(A)[sp].d(G)[sp].d(A)[sp].d(A)[sp].d(G)[sp].d(T)[sp].d(C)[sp].d(C)[sp].d(A)[sp].[cEt](C)[sp].[cEt](C)[sp].[moe](A)}$$$$V2.0”, the target mRNA inhibition (HepG2, 0.07 µM) was 53% and 49%.

Turning to “RNA1{[moe](T)[sp].[cEt](G)[sp].[cEt](C)[sp].d(A)[sp].d(G)[sp].d(A)[sp].d(G)[sp].d(G)[sp].d(T)[sp].d(G)[sp].d(A)[sp].d(A)[sp].d(G)[sp].[cEt](C)[sp].[cEt](G)[sp].[moe](A)}$$$$V2.0”, the target mRNA inhibition (HepG2, 0.07 µM) is 71% and 73%.

Take “RNA1{[moe](T)[sp].[cEt](G)[sp].[cEt](G)[sp].d(A)[sp].d(G)[sp].d(C)[sp].d(C)[sp].d(A)[sp].d(C)[sp].d(C)[sp].d(A)[sp].d(G)[sp].d(C)[sp].[cEt](A)[sp].[cEt](G)[sp].[moe](G)}$$$$V2.0”: under “HepG2, 0.07 µM”, the target mRNA inhibition was 57% and 53%.

On to “RNA1{[moe](T)[sp].[cEt](G)[sp].d(C)[sp].d(A)[sp].d(G)[sp].d(A)[sp].d(G)[sp].d(G)[sp].d(T)[sp].d(G)[sp].d(A)[sp].d(A)[sp].[cEt](G)[sp].[moe](C)[sp].[cEt](G)[sp].[moe](A)}$$$$V2.0”, for which the target mRNA inhibition by setting is: (HepG2, 0.0092593 µM) 5%; (HepG2, 0.0277778 µM) 39%; (HepG2, 0.07 µM) 77% and 86%; (HepG2, 0.0833333 µM) 70%; (HepG2, 0.25 µM) 85%.

On to “RNA1{[moe](T)[sp].[cEt](G)[sp].d(G)[sp].d(A)[sp].d(G)[sp].d(C)[sp].d(C)[sp].d(A)[sp].d(C)[sp].d(C)[sp].d(A)[sp].d(G)[sp].[cEt](C)[sp].[moe](A)[sp].[cEt](G)[sp].[moe](G)}$$$$V2.0”, for which the target mRNA inhibition (HepG2, 0.07 µM) is 59% and 42%.

For the substance “RNA1{[moe](T)[sp].[cEt](T)[sp].[cEt](A)[sp].d(T)[sp].d(G)[sp].d(C)[sp].d(C)[sp].d(T)[sp].d(A)[sp].d(C)[sp].d(A)[sp].d(G)[sp].d(C)[sp].[cEt](C)[sp].[cEt](T)[sp].[moe](C)}$$$$V2.0”, the target mRNA inhibition (HepG2, 0.07 µM) was 48% and 23%.

On to “RNA1{[moe](T)[sp].[moe](A)[sp].[moe](T)[sp].[moe](G)[sp].[moe](C)[sp].d(C)[sp].d(T)[sp].d(A)[sp].d(C)[sp].d(A)[sp].d(G)[sp].d(C)[sp].d(C)[sp].d(T)[sp].[moe](C)[sp].[moe](C)}$$$$V2.0”, for which the target mRNA inhibition (HepG2, 0.07 µM) was 47% and 42%.
